Laboratory results reported in PubChem BioAssay AID248 (DTP/NCI, 2004).
Inconclusive results and toxic doses are left out. No stated cut-off is given here; in the data, active means T/C of 150% or more; inactive means T/C below 125%.

Tested on: L1210 leukemia ip in BDF1 mice, survival T/C
Assay: NCI In Vivo Anticancer Drug Screen. Data for tumor model L1210 Leukemia (intraperitoneal) in B6D2F1 (BDF1) mice
Details: endpoint: mean survival time, higher = longer survival
Outline: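 Ratio derived from survival: compound-dosed mice over vehicle-dosed mice, all bearing a transplantable tumor.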

[1] = dose: 200.0 mg/kg/injection, schedule: Q04DX003 (ip), vehicle: saline with Tween-80
[2] = dose: 400.0 mg/kg/injection, schedule: Q04DX003 (ip), vehicle: saline with Tween-80
[3] = dose: 100.0 mg/kg/injection, schedule: Q04DX003 (ip), vehicle: saline
[4] = dose: 100.0 mg/kg/injection, schedule: Q01DX009 (ip), vehicle: saline
[5] = dose: 200.0 mg/kg/injection, schedule: Q01DX009 (ip), vehicle: saline
[6] = dose: 200.0 mg/kg/injection, schedule: Q04DX003 (ip), vehicle: saline
[7] = dose: 400.0 mg/kg/injection, schedule: Q01DX009 (ip), vehicle: saline
[8] = dose: 400.0 mg/kg/injection, schedule: Q04DX003 (ip), vehicle: saline
[9] = dose: 100.0 mg/kg/injection, schedule: Q04DX002 (ip), vehicle: saline with Tween-80
[10] = dose: 200.0 mg/kg/injection, schedule: Q04DX002 (ip), vehicle: saline with Tween-80
[11] = dose: 400.0 mg/kg/injection, schedule: Q04DX002 (ip), vehicle: saline with Tween-80

Measured: T/C

COc1ccc(-c2cc(C(=O)N/N=C/c3ccc([N+](=O)[O-])cc3)c3ccc(C)cc3n2)cc1OC
inactive: [1] 86 % of control | [2] 94 % of control

CC1C(=O)CC2C3(C)CCC2(C(C)C(=O)O)C(=O)C13 (stereo not drawn)
inactive: dose: 100.0 mg/kg/injection, schedule: Q01DX001 (ip), vehicle: Klucel (hydroxypropylcellulose) (HPC) 100 % of control | dose: 100.0 mg/kg/injection, schedule: Q01DX009 (ip), vehicle: Klucel (hydroxypropylcellulose) (HPC) 104 % of control | dose: 100.0 mg/kg/injection, schedule: Q04DX003 (ip), vehicle: Klucel (hydroxypropylcellulose) (HPC) 109 % of control | dose: 200.0 mg/kg/injection, schedule: Q01DX001 (ip), vehicle: Klucel (hydroxypropylcellulose) (HPC) 107 % of control | dose: 200.0 mg/kg/injection, schedule: Q01DX009 (ip), vehicle: Klucel (hydroxypropylcellulose) (HPC) 100 % of control | dose: 200.0 mg/kg/injection, schedule: Q04DX003 (ip), vehicle: Klucel (hydroxypropylcellulose) (HPC) 106 % of control | dose: 400.0 mg/kg/injection, schedule: Q01DX001 (ip), vehicle: Klucel (hydroxypropylcellulose) (HPC) 107 % of control | dose: 400.0 mg/kg/injection, schedule: Q01DX009 (ip), vehicle: Klucel (hydroxypropylcellulose) (HPC) 98 % of control | dose: 400.0 mg/kg/injection, schedule: Q04DX003 (ip), vehicle: Klucel (hydroxypropylcellulose) (HPC) 104 % of control

CC(=O)CC(=O)C(F)(F)F.[O]=[U]=[O]
inactive: dose: 0.37 mg/kg/injection, schedule: Q01DX009 (ip), vehicle: gum acacia 99 % of control | dose: 0.75 mg/kg/injection, schedule: Q01DX009 (ip), vehicle: gum acacia 101 % of control | dose: 1.5 mg/kg/injection, schedule: Q01DX009 (ip), vehicle: gum acacia 101 % of control | dose: 6.25 mg/kg/injection, schedule: Q01DX005 (ip), vehicle: gum acacia 99 % of control | dose: 6.25 mg/kg/injection, schedule: Q01DX009 (ip), vehicle: gum acacia 98 % of control | dose: 12.5 mg/kg/injection, schedule: Q01DX005 (ip), vehicle: gum acacia 86 % of control | dose: 12.5 mg/kg/injection, schedule: Q04DX002 (ip), vehicle: gum acacia 104 % of control | dose: 25.0 mg/kg/injection, schedule: Q04DX002 (ip), vehicle: gum acacia 87 % of control

CN(C)CN(C)C
inactive: dose: 25.0 mg/kg/injection, schedule: Q01DX001 (ip), vehicle: saline 98 % of control | dose: 25.0 mg/kg/injection, schedule: Q01DX009 (ip), vehicle: saline 89 % of control | dose: 25.0 mg/kg/injection, schedule: Q04DX003 (ip), vehicle: saline 100 % of control | dose: 50.0 mg/kg/injection, schedule: Q01DX001 (ip), vehicle: saline 102 % of control | dose: 50.0 mg/kg/injection, schedule: Q01DX009 (ip), vehicle: saline 100 % of control | dose: 50.0 mg/kg/injection, schedule: Q04DX003 (ip), vehicle: saline 100 % of control | [3] 102 % of control

OCC(O)Cc1ccccc1 (stereo not drawn)
inactive: [4] 97 % of control | [3] 102 % of control | [5] 105 % of control | [6] 102 % of control | [7] 108 % of control | [8] 101 % of control

CCCC(C)OS(=O)(=O)c1ccc(C)cc1 (stereo not drawn)
inactive: [4] 104 % of control | [9] 97 % of control | [5] 96 % of control | [10] 93 % of control | [7] 102 % of control | [11] 97 % of control

CCOc1ccc(C(=O)Nc2ccc(C3=NCCN3)cc2)cc1C(=O)Nc1ccc(C2=NCCN2)cc1
inactive: dose: 30.0 mg/kg/injection, schedule: Q01DX Z (oral), vehicle: saline 93 % of control | dose: 60.0 mg/kg/injection, schedule: Q01DX Z (oral), vehicle: saline 91 % of control | dose: 62.5 mg/kg/injection, schedule: Q01DX010 (oral), vehicle: saline 107 % of control | dose: 120.0 mg/kg/injection, schedule: Q01DX Z (oral), vehicle: saline 103 % of control | dose: 125.0 mg/kg/injection, schedule: Q01DX010 (oral), vehicle: saline 112 % of control | dose: 240.0 mg/kg/injection, schedule: Q01DX Z (oral), vehicle: saline 92 % of control | dose: 250.0 mg/kg/injection, schedule: Q01DX010 (oral), vehicle: saline 112 % of control | dose: 500.0 mg/kg/injection, schedule: Q01DX010 (oral), vehicle: saline 106 % of control

O=C1c2ccccc2C(=O)c2cc(Cl)ccc21
inactive: dose: 100.0 mg/kg/injection, schedule: Q04DX002 (ip), vehicle: Klucel (hydroxypropylcellulose) (HPC) 95 % of control | dose: 200.0 mg/kg/injection, schedule: Q04DX002 (ip), vehicle: Klucel (hydroxypropylcellulose) (HPC) 98 % of control | dose: 400.0 mg/kg/injection, schedule: Q04DX002 (ip), vehicle: Klucel (hydroxypropylcellulose) (HPC) 98 % of control

CCSC(C(O)C(O)C(O)C(O)CO)n1cnc2c(=S)nc[nH]c21 (stereo not drawn)
inactive: dose: 100.0 mg/kg/injection, schedule: Q01DX001 (ip), vehicle: saline 105 % of control | [3] 96 % of control | dose: 200.0 mg/kg/injection, schedule: Q01DX001 (ip), vehicle: saline 105 % of control | [6] 100 % of control | dose: 400.0 mg/kg/injection, schedule: Q01DX001 (ip), vehicle: saline 103 % of control | [8] 96 % of control

CCC(C)(C)C(=O)Nc1cccc(O)c1
inactive: dose: 100.0 mg/kg/injection, schedule: Q04DX003 (ip), vehicle: saline with Tween-80 92 % of control | [1] 90 % of control | [2] 95 % of control

C=C(C)C1(CC(C)C)C(=O)NC(=S)NC1=O
inactive: dose: 9.5 mg/kg/injection, schedule: Q01DX001 (ip), vehicle: other 100 % of control | dose: 19.0 mg/kg/injection, schedule: Q01DX001 (ip), vehicle: other 96 % of control | dose: 38.0 mg/kg/injection, schedule: Q01DX001 (ip), vehicle: other 96 % of control

C[N+](C)(C)c1ncnc2c1ncn2C1CCCO1 (stereo not drawn)
inactive: dose: 50.0 mg/kg/injection, schedule: Q01DX Z (ip), vehicle: methylcellulose (MC) 92 % of control | dose: 100.0 mg/kg/injection, schedule: Q01DX Z (ip), vehicle: methylcellulose (MC) 94 % of control

CCOC(=O)c1ccnc2ccc(OC)cc12
inactive: [9] 91 % of control | [10] 100 % of control | [11] 104 % of control

Cn1cnc2c3cccnc3ccc21
inactive: dose: 75.0 mg/kg/injection, schedule: Q01DX001 (ip), vehicle: saline 95 % of control | dose: 150.0 mg/kg/injection, schedule: Q01DX001 (ip), vehicle: saline 103 % of control
